Test results taken from PubChem BioAssay (NCI).
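Briefly, cells in 96-well plates were exposed to five compound concentrations for 48 h, and endpoints were estimated by linear interpolation. GI50: concentration for 50% inhibition of growth. At the TGI there is no net growth.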

Assays:
Test in all cases: NCI-60 cell line screen, 48 h
MDA-MB-231 breast = system: MDA-MB-231 breast
BT-549 breast = system: BT-549 breast
HCC-2998 colon = system: HCC-2998 colon
MDA-MB-435 = system: MDA-MB-435
SR leukemia = system: SR leukemia
IGROV1 ovarian = system: IGROV1 ovarian
NCI/ADR-RES ovarian = system: NCI/ADR-RES ovarian
CCRF-CEM leukemia = system: CCRF-CEM leukemia
SNB-19 CNS = system: SNB-19 CNS
HS 578T breast = system: HS 578T breast

| SMILES | TGI (MDA-MB-231 breast) [µM] | TGI (BT-549 breast) [µM] | TGI (HCC-2998 colon) [µM] | TGI (MDA-MB-435) [µM] | TGI (SR leukemia) [µM] | TGI (IGROV1 ovarian) [µM] | TGI (NCI/ADR-RES ovarian) [µM] | TGI (CCRF-CEM leukemia) [µM] | TGI (SNB-19 CNS) [µM] | TGI (HS 578T breast) [µM] | GI50 (BT-549 breast) [µM] | GI50 (HCC-2998 colon) [µM] | GI50 (SR leukemia) [µM] | GI50 (CCRF-CEM leukemia) [µM] |
| --- | --- | --- | --- | --- | --- | --- | --- | --- | --- | --- | --- | --- | --- | --- |
| COc1ccc(C[n+]2cccc(O)c2)cc1 | > 100 | > 100 | > 100 | > 100 | > 100 | > 100 | > 100 | > 100 | > 100 | > 100 | – | – | – | – |
| Cc1cccc2c(N)c3cccc(C(=O)NCC[N+](C)(C)Cc4ccc(S(C)(=O)=O)cc4)c3nc12 | > 100 | > 100 | > 100 | > 100 | – | > 100 | > 100 | > 62 | > 100 | > 100 | – | – | – | – |
| CC(=O)c1cc(CC2Cc3cc4c(cc3C2=O)CCC4)cc2c1CCC2 (stereo not given) | > 100 | > 100 | > 100 | > 100 | > 100 | > 100 | > 100 | > 100 | > 100 | > 100 | – | – | – | – |
| CC(O)CC(=O)CO[C@H]1[C@H](O)[C@@H](O)[C@@H](O)[C@@H]2NC(=O)c3c(cc4c(c3O)OCO4)[C@H]21 (stereo not given in full) | 0.545 | 0.482 | 0.0609 | 0.175 | 0.125 | 0.256 | 27.6 | – | 0.0754 | 0.153 | – | – | – | – |
| COC(=O)CNC(=O)CNC(=O)CSc1nnc(COc2ccc(Cl)cc2)n1-c1ccccc1 | 39.2 | 58.8 | > 100 | 34.5 | 86.6 | 39.4 | > 100 | 57.4 | > 100 | 78.3 | – | – | – | – |
| Clc1ccc(OCc2nnc3sc(SSc4nn5c(COc6ccc(Cl)cc6)nnc5s4)nn23)cc1 | > 100 | > 100 | > 100 | > 100 | > 100 | > 100 | > 100 | > 100 | > 100 | > 100 | 48.1 | 16.1 | 14.2 | 76.7 |
| CCOc1cc(/C=N/c2nc3cc4sc(/N=C/c5ccc(O)c(OCC)c5)nc4cc3s2)ccc1O | > 100 | > 100 | > 100 | > 100 | > 100 | > 100 | > 100 | – | > 100 | > 100 | – | – | – | – |
| O=C1NC(=S)N/C1=C\c1ccc(Cl)cc1 | > 100 | > 100 | > 100 | > 100 | – | > 100 | > 100 | > 100 | > 100 | > 100 | – | – | – | – |
| O=[N+]([O-])c1ccc(NNN=Nc2ccc(-c3nc4ccccc4[nH]3)cc2)c([N+](=O)[O-])c1 | > 100 | > 100 | > 100 | > 100 | > 100 | > 100 | > 100 | > 100 | > 100 | > 100 | – | – | – | – |
| O=C(c1cc(Cl)cc(Cl)c1)N(Cc1cccnc1)C(=S)N(Cc1cccnc1)C(=O)c1cc(Cl)cc(Cl)c1 | 71.5 | 81.5 | 49.6 | > 100 | > 100 | – | > 100 | > 100 | > 100 | > 100 | – | – | – | – |
| COC(O)C(=O)c1c2c(cc3c1CCC3)CCC2 (stereo not given) | > 100 | > 100 | > 100 | > 100 | > 100 | > 100 | > 100 | > 100 | > 100 | > 100 | – | – | – | – |
| COc1ccc2nc3cc([N+](=O)[O-])ccc3c(NNc3ccc([N+](=O)[O-])cc3)c2c1 | > 91.6 | > 100 | 69.4 | > 100 | > 69 | > 59 | > 100 | 98.6 | > 76.8 | > 100 | – | – | – | – |
| CN1C(=O)N/C(=C\c2ccc(S(=O)(=O)N/N=C/c3ccccc3)cc2)C1=O | > 100 | > 100 | > 100 | > 100 | > 100 | > 100 | > 100 | > 100 | > 100 | > 100 | – | – | – | – |
| N#CC(NNC(=O)c1c(Cl)c(Cl)c(Cl)c(Cl)c1-c1nc2ccc(C(=O)c3ccccc3)cc2[nH]1)c1ccccc1 (stereo not given) | 36.4 | > 100 | – | 15.3 | 11.2 | > 100 | 32.2 | > 100 | 99.2 | > 100 | – | – | – | – |
| COc1ccc(OC)c(N=Cc2cc(OC)c(OC)c(OC)c2)c1 | > 100 | > 100 | > 100 | > 76.2 | > 100 | > 100 | > 100 | 66.4 | > 100 | > 100 | – | – | – | – |
| CCCCCCCCCC(=O)NCCc1c[nH]c2ccc(OC)cc12 | 30.9 | 32.9 | 36.1 | 60.3 | > 100 | 30 | 38.4 | 37.5 | 31.2 | 42.8 | – | – | – | – |

| SMILES | TGI (MDA-MB-231 breast) [µM] | TGI (BT-549 breast) [µM] | TGI (HCC-2998 colon) [µM] | TGI (MDA-MB-435) [µM] | TGI (SR leukemia) [µM] | TGI (IGROV1 ovarian) [µM] | TGI (NCI/ADR-RES ovarian) [µM] | TGI (CCRF-CEM leukemia) [µM] | TGI (SNB-19 CNS) [µM] | TGI (HS 578T breast) [µM] | GI50 (BT-549 breast) [µM] | GI50 (HCC-2998 colon) [µM] | GI50 (SR leukemia) [µM] | GI50 (CCRF-CEM leukemia) [µM] |
| --- | --- | --- | --- | --- | --- | --- | --- | --- | --- | --- | --- | --- | --- | --- |
| O=C1CNc2cc(N3CCOCC3)ccc2N1 | > 100 | > 100 | > 100 | > 100 | > 100 | > 100 | > 100 | > 100 | > 100 | > 100 | – | – | – | – |
| N#CC(c1ccccc1)N(CCc1ccccc1)C(=O)c1ccc(C(=O)N(CCc2ccccc2)C(C#N)c2ccccc2)cc1 (stereo not given) | 76.1 | 44.3 | 29.1 | 58 | – | 57 | 47.3 | 71.5 | > 100 | 39.1 | – | – | – | – |
| Brc1c2c(c(Br)c3nsnc13)N=S=N2 | 60.7 | 26.9 | > 100 | > 74.4 | 14.1 | > 60.7 | 79.8 | 5.2 | > 70 | 75 | – | – | – | – |
| O=S(=O)(O)c1ccc(Nc2ccnc3ccccc23)cc1 | > 100 | > 100 | > 100 | > 100 | > 100 | > 100 | > 100 | > 100 | > 100 | > 100 | – | – | – | – |
| CCCCCCc1cc2cc(C(=O)NCc3ccccc3)c(=N)oc2cc1O | > 100 | > 100 | > 100 | > 100 | > 100 | > 100 | > 100 | > 100 | > 100 | > 100 | – | – | – | – |
| COc1ccc(C(OC(=O)[C@H](O[Si](C)(C)C(C)(C)C)[C@@H](NC(=O)c2ccccc2)c2ccccc2)c2ccc(OC)cc2)cc1 | > 100 | > 100 | > 100 | > 100 | > 100 | > 100 | > 100 | > 100 | > 100 | > 100 | – | – | – | – |
| Clc1cc2nc(C3CCCCO3)[nH]c2cc1Cl (stereo not given) | > 100 | 68.1 | 96.9 | > 44.6 | > 100 | > 100 | > 52.1 | > 100 | > 100 | > 71.3 | – | – | – | – |
| Fc1cc(C2=Nn3c(CNc4ccc(Cl)cc4)nnc3S/C2=C\c2ccc(-c3ccc(Cl)cc3)o2)c(Cl)cc1Cl | 32.2 | > 100 | > 100 | > 100 | > 100 | > 100 | 27.5 | > 100 | > 100 | > 100 | – | – | – | – |
| CC1=NN(c2cccc(Cl)c2)C2(C1=Cc1cccs1)C(Cl)C(=O)N2c1nc2ccccc2s1 (stereo not given) | 41.4 | 49.4 | 35.3 | > 100 | 48.5 | > 100 | 45.4 | – | – | 68.7 | – | – | – | – |
| O=C(/C=C\c1ccsc1)c1ccccc1 | 18.5 | 26.2 | 24.3 | 23.1 | > 21.7 | 22.2 | 32.4 | 3.41 | 25.9 | 20.4 | – | – | – | – |
| CN1CN(c2ccccc2)C2(CCN(C3Nc4ccccc4O3)CC2)C1=O (stereo not given) | 44.6 | 37.3 | – | 42.1 | > 100 | 58.5 | 56.1 | 57.6 | 74.4 | 37.7 | – | – | – | – |
| CC(=O)Nc1c2sscc-2n(C)c1=O | 3.54 | 2.76 | 1.89 | 2.51 | – | 4.65 | 4.22 | 1.51 | 3.45 | 10.3 | – | – | – | – |
| CC(C)(C)CNCCCNc1ccc(Cl)cc1 | 82.3 | > 100 | – | 68.2 | 49.4 | > 100 | > 100 | > 100 | > 100 | > 100 | – | – | – | – |
| Cc1ccc(N=NN(C)C(C)C(O)Cc2ccccc2)cc1 (stereo not given) | > 100 | > 100 | > 100 | > 100 | – | > 100 | > 100 | > 100 | > 100 | > 100 | – | – | – | – |
| Cc1c2oc3c(C)cnc(C(=O)NC4C(=O)NC(C(C)C)C(=O)N5CCCC5C(=O)N(C)CC(=O)N(C)C(C(C)C)C(=O)OC4C)c3nc-2c(C(=O)NC2C(=O)NC(C(C)C)C(=O)N3CCCC3C(=O)N(C)CC(=O)N(C)C(C(C)C)C(=O)OC2C)c(N)c1=O (stereo not given) | 41.3 | 33.5 | 15.7 | 16.7 | – | > 75 | > 75 | 5.44 | > 68.4 | 19.5 | – | – | – | – |
